Source: article PMC11100771, “Structural basis of ligand specificity and channel activation in an insect gustatory receptor” (Cell reports, 2024)

Molecular target: T1, Bombyx mori Gr9 (BmGr9) (Bombyx mori, UniProt B3GTD7)
T1 construct: N-terminally Twin-Strep-tagged BmGr9, homotetramer
T1 sequence (B3GTD7 1-449): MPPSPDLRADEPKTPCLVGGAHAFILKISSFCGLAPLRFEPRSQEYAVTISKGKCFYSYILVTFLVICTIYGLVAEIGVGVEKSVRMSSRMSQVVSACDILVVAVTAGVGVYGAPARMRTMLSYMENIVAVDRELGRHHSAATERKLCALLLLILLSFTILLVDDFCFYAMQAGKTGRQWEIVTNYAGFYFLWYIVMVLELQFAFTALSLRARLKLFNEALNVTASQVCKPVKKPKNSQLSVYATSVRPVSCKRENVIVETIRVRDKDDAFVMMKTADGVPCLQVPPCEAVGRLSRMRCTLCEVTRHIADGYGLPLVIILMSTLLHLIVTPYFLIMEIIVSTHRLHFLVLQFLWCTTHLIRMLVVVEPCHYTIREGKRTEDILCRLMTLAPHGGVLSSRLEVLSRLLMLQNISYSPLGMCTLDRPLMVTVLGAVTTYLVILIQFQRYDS
Experiment: cryo-EM structure ([…] Å) with […] D-fructose; EC50 by two-electrode voltage clamp in Xenopus oocytes
Type: cell-based

EC50: 22 mM
Structure (SMILES): OCC1(O)OC[C@@H](O)[C@@H](O)[C@@H]1O (stereo partly drawn) [D-fructose]
